Publication PMC5995184, “Potent anti-leukemic activity of a specific cyclin-dependent kinase 9 inhibitor in mouse models of chronic lymphocytic leukemia” (Oncotarget, 2018)

Experiments:
[1] = test system: TCL1 CLL cells (CD5+CD19+), T and B lymphocytes; experiment: TCL1 transgenic CLL mice, oral LDC526, longitudinal blood and final spleen analysis; assay type: in vivo, mouse
Description: Another widely used preclinical CLL model are TCL1 transgenic mice. The TCL1 transgenics represent a constitutive CLL model not involving the adoptive transfer of cells. This model mirrors the natural course of human IgVH-unmutated CLL including its disease progression. In addition, this model has also been widely used by others to test novel therapeutic molecules. […] Consecutive blood sampling allowed us to carry out a longitudinal study in individual TCL1 and control mice. For this, we chose a cohort of TCL1 and littermate control mice, which were 9-12 months old (Figure 5A). We chose TCL1 transgenics with high peripheral CLL cell (CD19+CD5+) counts (14.6±7.4/nl, mean±SEM). Given the presumably high leukemic burden in these aged TCL1 mice and the reduced general condition of some NSG mice receiving 75 mg/kg for 5 days we decided to dose TCL1 mice with 50 mg/kg daily for two consecutive days (Figure 5A). As the experiment was longitudinally designed and there was no effect expected of administering carrier to wild-type control mice we omitted this control group and established three experimental groups (Figure 5A). In order to minimize stress by collecting blood specimens we sampled blood three times, 8 days apart (days -5, +3 and +11; Figure 5A). Compared to blood smears prepared before commencing LDC526 treatment a marked decrease of peripheral blood leukocytes and CLL cells was observed two days post the last LDC526 administration to TCL1 transgenic mice (Figure 5B). In contrast to the carrier control treated TCL1 mice, white blood cell counts (WBC) dropped in LDC526-treated wild-type and TCL1 mice (Figure 5C). In comparison to wild-type control mice, where WBC dropped to 34% of baseline values, the WBC decrease in TCL1 mice was more dramatic dropping to 8% of baseline values (Figure 5D).
All mice were bred and housed at the University Hospital Essen animal care facility. TCL1 mice were back-crossed more than 6 generations into the C57BL/6 background and were genotyped as previously described. Age-matched TCL1 wild-type littermates served as controls. Peripheral blood counts were determined with the VetABC analyzer (scil, Viernheim, Germany). Blood smears were Wright-Giemsa stained. For the human CLL xenograft experiments eight to 14-week-old NOD.Cg-Prkdc^scid Il2rg^tm1Wjl/SzJ (NOD/scid/γc^null; NSG) mice were sublethally irradiated (3.25 Gy) 24 hours before transplantation. Freshly isolated 1.0 x 10^8 PBMC suspended in 0.2 ml of RPMI were intravenously transplanted as previously described. For oral administration, LDC526 was diluted in polyethelene glycol (PEG Mn 400, Sigma-Aldrich) and administerd by gavage. Animal experiments were performed in accordance with institutional guidelines approved by the Animal Care Committee of the University Hospital Essen.
LDC526 [(3-((4-(4-fluoro-2-methoxyphenyl)-1,3,5-triazin-2-yl)amino)phenyl)methane-sulfonamide, molecular weight 389,41 g/mol, Figure 1A] was provided as powder (LDC526 synthesis, supplementary methods). For oral gavage administration LDC526 was diluted in polyethelene glycol (PEG Mn 400, Sigma-Aldrich, Munich, Germany) followed by sonication for 3 x 5 minutes with intermediate mixing.
Apoptosis and cell death were determined by using Annexin V (BD Biosciences, Heidelberg, Germany) and 4′,6-Diamidin-2-phenylindol (DAPI, Sigma-Aldrich) staining. Erythrocytes of murine peripheral blood samples were lysed with NH4Cl hypotonic solution. Single cell suspensions of murine spleens were prepared as previously described. Murine cells were stained with antibodies directed against murine CD3 (clone 145-2C11), CD5 (53-7.3) and CD19 (1D3), respectively. For the detection of human cells in NSG spleens antibodies against human CD3 (clone SK7), CD4 (SK3), CD5 (L17F12), CD8 (SK1), CD19 (J3-119 or SJ25C1) and CD45 (2D1) were used (purchased from BD Bioscience, Biolegend and Beckman Coulter). […]

CDK2-Cyclin A = target: T1, CDK2-Cyclin A (Homo sapiens, UniProt P24941); experiment: FRET-based LANCE Ultra in vitro enzymatic kinase assay, CDK2; assay type: biochemical
T1 construct: purchased ProQinase
Experimental: IC50 values for CDK inhibitors were determined using the fluorescence resonance energy transfer (FRET)-based LANCE Ultra KinaSelect Ser/Thr kit (Perkin Elmer). Kinase activity and inhibition were measured according to the manufacturer’s instructions and as previously described. […] FRET signals were recorded in a time-resolved manner in a Perkin Elmer EnVision reader. Purified cyclin-kinase pairs were obtained from the following suppliers: Carna Biosciences (CDK1-Cyclin B1, CDK6-Cyclin D3, CDK7-Cyclin H-MAT1), ProQinase (CDK2-Cyclin A) and Invitrogen (CDK9-Cyclin T1).
Data were analyzed with GraphPad Prism 7 software. Differences were assessed by unpaired or paired Student t tests if not indicated otherwise. Two-sided probabilities of less than 0.05 were considered significant. Nonlinear regression sigmoidal dose-response curve fit was used to determine the IC50 values and to generate graphs.

Compound: COc1cc(F)ccc1-c1ncnc(Nc2cccc(CS(N)(=O)=O)c2)n1 [LDC526, (3-((4-(4-fluoro-2-methoxyphenyl)-1,3,5-triazin-2-yl)amino)phenyl)methane-sulfonamide]
- decrease of peripheral blood CLL counts of individual TCL1 mice ([1]; 50 mg/kg for two days): at least 8 fold
- decrease of TCL1 blood T cells ([1]; 50 mg/kg for two days, day +3): 6 fold
- decrease of mean TCL1 blood CLL numbers compared to baseline ([1]; 50 mg/kg for two days, day +3): 16 fold
- hemoglobin counts ([1]; LDC526-treated mice, longitudinal): did not change significantly
- increase of peripheral blood CLL numbers on day +11 compared to day +3 ([1]; TCL1 mice): 29%
- mean platelet concentrations, percent of baseline levels ([1]; TCL1 mice after LDC526 treatment): ≥ 50%
- WBC, percent of baseline values ([1]; TCL1 mice, 50 mg/kg daily for two days, day +3): 8%
- drop of mean WBC ([1]; TCL1 mice, 50 mg/kg for two days): 12 fold
- non-malignant B cell numbers, percent of baseline values ([1]; TCL1 mice, peripheral blood): 1.4%
- peripheral blood TCL1 CLL cells, percent of baseline levels ([1]; day +3): 6.4%
- splenic weights versus carrier control TCL1 mice ([1]; day +11): significantly lower
- selectivity versus CDK9 compared to CDK2 (CDK2-Cyclin A): 52 fold
